# According to patent US11028079B2 (ConverGene LLC, priority 2015, dated 2021):
# Target: T1, BRD4 bromodomains (Homo sapiens, UniProt O60885)
# T1 construct: fused on or other part: T7 phage capsid protein (phage-display fusion; the phage DNA is read out by qPCR)
# Test: BROMOscan bromodomain competition binding assay (DiscoveRx)
# Conditions: Kd from 11 compound concentrations ranging from 0 to 10 μM, read-out: BROMOscan Relative Activity
# Method in brief: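 Compounds in 0.1% DMSO/0.9% MEG competed with a solid-phase acetylated peptide for T7 phage-fused BRD4 bromodomains, with the retained bromodomain measured by qPCR.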
row,SMILES,Kd
1,"Cc1noc(C)c1-c1ccc2ncnc(Nc3ccc(Cl)cc3)c2c1 [Example 158, N-(4-chlorophenyl)-6-(3,5-dimethylisoxazol-4-yl)quinazolin-4-amine]",0.5 to 5 µM
2,"Cn1cc(-c2ccc3ncnc(Nc4ccc(Cl)cc4)c3c2)ccc1=O [Example 159, 5-(4-((4-chlorophenyl)amino)quinazolin-6-yl)-1-methylpyridin-2(1H)-one]",> 5 µM
3,"Cc1noc(C)c1-c1ccc2nc(-c3cnn(CCO)c3)nc(NC3(c4cccc(Cl)c4)CC3)c2c1 [Example 164, 2-(4-(4-((1-(3-chlorophenyl)cyclopropyl)amino)-6-(3,5-dimethylisoxazol-4-yl)quinazolin-2-yl)-1H-pyrazol-1-yl)ethanol]",< 0.5 µM
4,"Cc1noc(C)c1-c1ccc2nc(-c3cnn(CC(=O)O)c3)nc(NCc3cccc(Cl)c3)c2c1 [Example 166, 2-(4-(4-((3-chlorobenzyl)amino)-6-(3,5-dimethylisoxazol-4-yl)quinazolin-2-yl)-1H-pyrazol-1-yl)acetic acid]",< 0.5 µM
5,"Cc1noc(C)c1-c1ccc2nc(N3CCN(CCN(C)C)CC3)nc(NC3(c4cccc(Cl)c4)CC3)c2c1 [Example 170, N-(1-(3-chlorophenyl)cyclopropyl)-2-(4-(2-(dimethylamino)ethyl)piperazin-1-yl)-6-(3,5-dimethylisoxazol-4-yl)quinazolin-4-amine]",< 0.5 µM
6,"Cc1noc(C)c1-c1ccc2nc(C(=O)NCc3ccncc3)nc(NCc3cccc(Cl)c3)c2c1 [Example 171, 4-((3-chlorobenzyl)amino)-6-(3,5-dimethylisoxazol-4-yl)-N-(pyridin-4-ylmethyl)quinazoline-2-carboxamide]",< 0.5 µM
7,"Cc1noc(C)c1-c1ccc2nc(N3CCN(CCN(C)C)CC3)nc(N[C@H](CO)c3ccccc3)c2c1 [Example 173, (S)-2-((2-(4-(2-(dimethylamino)ethyl)piperazin-1-yl)-6-(3,5-dimethylisoxazol-4-yl)quinazolin-4-yl)amino)-2-phenylethanol]",< 0.5 µM
8,"Cc1noc(C)c1-c1ccc2nc(C(=O)NCc3ncc[nH]3)nc(NCc3cccc(Cl)c3)c2c1 [Example 177, N-((1H-imidazol-2-yl)methyl)-4-((3-chlorobenzyl)amino)-6-(3,5-dimethylisoxazol-4-yl)quinazoline-2-carboxamide]",< 0.5 µM
9,"Cc1noc(C)c1-c1ccc2nc(N3CCN(CCN(C)C)CC3)nc(N3CCC3c3ccccc3)c2c1 (stereo not drawn) [Example 179, 2-(4-(6-(3,5-dimethylisoxazol-4-yl)-4-(2-phenylazetidin-1-yl)quinazolin-2-yl)piperazin-1-yl)-N,N-dimethylethanamine]",< 0.5 µM
10,"Cc1noc(C)c1-c1ccc2nc(-c3cnn(CC(C)(C)O)c3)nc(NC3(c4cccc(Cl)c4)CC3)c2c1 [Example 182, 1-(4-(4-((1-(3-chlorophenyl)cyclopropyl)amino)-6-(3,5-dimethylisoxazol-4-yl)quinazolin-2-yl)-1H-pyrazol-1-yl)-2-methylpropan-2-ol]",< 0.5 µM
11,"Cc1noc(C)c1-c1ccc2nc(C(=O)NCc3cncn3C)nc(NCc3cccc(Cl)c3)c2c1 [Example 183, 4-((3-chlorobenzyl)amino)-6-(3,5-dimethylisoxazol-4-yl)-N-((1-methyl-1H-imidazol-5-yl)methyl)quinazoline-2-carboxamide]",< 0.5 µM
12,"Cc1ccncc1CNC(=O)c1nc(NCc2cccc(Cl)c2)c2cc(-c3c(C)noc3C)ccc2n1 [Example 187, 4-((3-chlorobenzyl)amino)-6-(3,5-dimethylisoxazol-4-yl)-N-((4-methylpyridin-3-yl)methyl)quinazoline-2-carboxamide]",< 0.5 µM
13,"Cc1noc(C)c1-c1ccc2nc(C(=O)NCc3cccnc3)nc(NCc3cccc(Cl)c3)c2c1 [Example 189, 4-((3-chlorobenzyl)amino)-6-(3,5-dimethylisoxazol-4-yl)-N-(pyridin-3-ylmethyl)quinazoline-2-carboxamide]",< 0.5 µM
14,"Cc1noc(C)c1-c1ccc2nc(C(=O)NCc3cnn(C)c3C)nc(NCc3cccc(Cl)c3)c2c1 [Example 190, 4-((3-chlorobenzyl)amino)-N-((1,5-dimethyl-1H-pyrazol-4-yl)methyl)-6-(3,5-dimethylisoxazol-4-yl)quinazoline-2-carboxamide]",< 0.5 µM

# Other lines, results leading:
row,Kd,SMILES
1,< 0.5 µM,"Cc1noc(C)c1-c1ccc2nc(N3CCC(C)(C#N)CC3)nc(NCc3cncc(Cl)c3)c2c1 [Example 157, 1-(4-(((5-chloropyridin-3-yl)methyl)amino)-6-(3,5-dimethylisoxazol-4-yl)quinazolin-2-yl)-4-methylpiperidine-4-carbonitrile]"
2,0.5 to 5 µM,"Cc1noc(C)c1-c1ccc2nc(N3CCN(CCN(C)C)CC3)nc(NCCc3ccc(Cl)cc3)c2c1 [Example 160, N-(4-chlorophenethyl)-2-(4-(2-(dimethylamino)ethyl)piperazin-1-yl)-6-(3,5-dimethylisoxazol-4-yl)quinazolin-4-amine]"
3,0.5 to 5 µM,"Cc1noc(C)c1-c1ccc2nc(N3CCN(CCN(C)C)CC3)nc(N3CC(Cc4ccccc4)C3)c2c1 [Example 161, 2-(4-(4-(3-benzylazetidin-1-yl)-6-(3,5-dimethylisoxazol-4-yl)quinazolin-2-yl)piperazin-1-yl)-N,N-dimethylethanamine]"
4,0.5 to 5 µM,"Cc1noc(C)c1-c1ccc2nc(N3CCN(CCN(C)C)CC3)nc(Nc3ccc(Cl)cc3)c2c1 [Example 162, N-(4-chlorophenyl)-2-(4-(2-(dimethylamino)ethyl)piperazin-1-yl)-6-(3,5-dimethylisoxazol-4-yl)quinazolin-4-amine]"
5,< 0.5 µM,"Cc1noc(C)c1-c1ccc2nc(C(=O)O)nc(NCc3cccc(Cl)c3)c2c1 [Example 163, 4-((3-chlorobenzyl)amino)-6-(3,5-dimethylisoxazol-4-yl)quinazoline-2-carboxylic acid]"
6,0.5 to 5 µM,"Cc1noc(C)c1-c1ccc2nc(C(=O)N3CCN(CCN(C)C)CC3)nc(NCc3cccc(Cl)c3)c2c1 [Example 165, (4-((3-chlorobenzyl)amino)-6-(3,5-dimethylisoxazol-4-yl)quinazolin-2-yl)(4-(2-(dimethylamino)ethyl)piperazin-1-yl)methanone]"
7,> 5 µM,"Cc1noc(C)c1-c1ccc2nc(NCc3ccc(Cl)cc3)nc(NCc3cccc(Cl)c3)c2c1 [Example 167, N4-(3-chlorobenzyl)-N2-(4-chlorobenzyl)-6-(3,5-dimethylisoxazol-4-yl)quinazoline-2,4-diamine]"
8,> 5 µM,"Cc1noc(C)c1-c1ccc2nc(C(=O)NCc3ccc(Cl)cc3)nc(NCc3cccc(Cl)c3)c2c1 [Example 168, N-(4-chlorobenzyl)-4-((3-chlorobenzyl)amino)-6-(3,5-dimethylisoxazol-4-yl)quinazoline-2-carboxamide]"
9,> 5 µM,"Cc1noc(C)c1-c1ccc2nc(Oc3ccc(Cl)cc3)nc(NCc3cccc(Cl)c3)c2c1 [Example 169, N-(3-chlorobenzyl)-2-(4-chlorophenoxy)-6-(3,5-dimethylisoxazol-4-yl)quinazolin-4-amine]"
10,< 0.5 µM,"Cc1noc(C)c1-c1ccc2nc(C(=O)NC3CCN(C)CC3)nc(NCc3cccc(Cl)c3)c2c1 [Example 172, 4-((3-chlorobenzyl)amino)-6-(3,5-dimethylisoxazol-4-yl)-N-(1-methylpiperidin-4-yl)quinazoline-2-carboxamide]"
11,< 0.5 µM,"Cc1noc(C)c1-c1ccc2nc(N3CCN(CCN(C)C)CC3)nc(N3CCCC3c3ccccc3)c2c1 (stereo not drawn) [Example 174, 2-(4-(6-(3,5-dimethylisoxazol-4-yl)-4-(2-phenylpyrrolidin-1-yl)quinazolin-2-yl)piperazin-1-yl)-N,N-dimethylethanamine]"
12,< 0.5 µM,"Cc1noc(C)c1-c1ccc2nc(N3CCN(CCN(C)C)CC3)nc(N3CCCCC3c3ccccc3)c2c1 (stereo not drawn) [Example 175, 2-(4-(6-(3,5-dimethylisoxazol-4-yl)-4-(2-phenylpiperidin-1-yl)quinazolin-2-yl)piperazin-1-yl)-N,N-dimethylethanamine]"
13,< 0.5 µM,"Cc1noc(C)c1-c1ccc2nc(NCc3ncc[nH]3)nc(NCc3cccc(Cl)c3)c2c1 [Example 178, N2-((1H-imidazol-2-yl)methyl)-N4-(3-chlorobenzyl)-6-(3,5-dimethylisoxazol-4-yl)quinazoline-2,4-diamine]"
14,< 0.5 µM,"Cc1noc(C)c1-c1ccc2nc(N3CCN(S(C)(=O)=O)CC3)nc(NC3(c4cccc(Cl)c4)CC3)c2c1 [Example 180, N-(1-(3-chlorophenyl)cyclopropyl)-6-(3,5-dimethylisoxazol-4-yl)-2-(4-(methylsulfonyl)piperazin-1-yl)quinazolin-4-amine]"
15,< 0.5 µM,"CNC(=O)Cn1cc(-c2nc(NC3(c4cccc(Cl)c4)CC3)c3cc(-c4c(C)noc4C)ccc3n2)cn1 [Example 181, 2-(4-(4-((1-(3-chlorophenyl)cyclopropyl)amino)-6-(3,5-dimethylisoxazol-4-yl)quinazolin-2-yl)-1H-pyrazol-1-yl)-N-methylacetamide]"
16,< 0.5 µM,"CC(=O)N1CCN(c2nc(NCc3cccc(Cl)c3)c3cc(-c4c(C)noc4C)ccc3n2)CC1 [Example 184, 1-(4-(4-((3-chlorobenzyl)amino)-6-(3,5-dimethylisoxazol-4-yl)quinazolin-2-yl)piperazin-1-yl)ethanone]"
17,< 0.5 µM,"CC(=O)N1CCN(c2nc(NC3(c4cccc(Cl)c4)CC3)c3cc(-c4c(C)noc4C)ccc3n2)CC1 [Example 185, 1-(4-(4-((1-(3-chlorophenyl)cyclopropyl)amino)-6-(3,5-dimethylisoxazol-4-yl)quinazolin-2-yl)piperazin-1-yl)ethanone]"
18,< 0.5 µM,"Cc1noc(C)c1-c1ccc2nc(C(=O)NCc3cnn(C)c3)nc(NCc3cccc(Cl)c3)c2c1 [Example 186, 4-((3-chlorobenzyl)amino)-6-(3,5-dimethylisoxazol-4-yl)-N-((1-methyl-1H-pyrazol-4-yl)methyl)quinazoline-2-carboxamide]"
19,< 0.5 µM,"Cc1noc(C)c1-c1ccc2nc(C(=O)NCc3cc(Cl)ccn3)nc(NCc3cccc(Cl)c3)c2c1 [Example 188, 4-((3-chlorobenzyl)amino)-N-((4-chloropyridin-2-yl)methyl)-6-(3,5-dimethylisoxazol-4-yl)quinazoline-2-carboxamide]"
